From PubChem BioAssay (NCI)
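All cell lines were grown in 96-well plates and treated with compound for 48 hours. Here, GI50 denotes the concentration required for 50% inhibition of growth. At the TGI there is no net growth.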

Experiments:
Experiment in all cases: DTP human tumour cell line panel, 48 h
ACHN renal = test system: ACHN renal
BT-549 breast = test system: BT-549 breast
HS 578T breast = test system: HS 578T breast
K-562 leukemia = test system: K-562 leukemia
MCF7 breast = test system: MCF7 breast
MOLT-4 leukemia = test system: MOLT-4 leukemia
NCI-H522 lung = test system: NCI-H522 lung
SF-295 CNS = test system: SF-295 CNS
SK-MEL-5 melanoma = test system: SK-MEL-5 melanoma
SK-OV-3 ovarian = test system: SK-OV-3 ovarian

Compound | GI50 (ACHN renal) [nM] | TGI (ACHN renal) [nM] | GI50 (BT-549 breast) [nM] | TGI (BT-549 breast) [nM] | GI50 (HS 578T breast) [nM] | TGI (HS 578T breast) [nM] | GI50 (K-562 leukemia) [nM] | TGI (K-562 leukemia) [nM] | GI50 (MCF7 breast) [nM] | TGI (MCF7 breast) [nM] | GI50 (MOLT-4 leukemia) [nM] | TGI (MOLT-4 leukemia) [nM] | GI50 (NCI-H522 lung) [nM] | TGI (NCI-H522 lung) [nM] | GI50 (SF-295 CNS) [nM] | TGI (SF-295 CNS) [nM] | GI50 (SK-MEL-5 melanoma) [nM] | TGI (SK-MEL-5 melanoma) [nM] | GI50 (SK-OV-3 ovarian) [nM] | TGI (SK-OV-3 ovarian) [nM]
CCCCCCCCCc1ccc(OCCOCCOCCOCCOCCOCCOCCOCCOCCO)cc1 | 1190 | 5700 | 590 | 1610 | 1170 | 9030 | 332 | 7270 | 328 | 1960 | 704 | 2150 | 302 | 1390 | 304 | 1960 | 136 | 643 | 991 | 2450
O=C(NN1C(=O)CSC1c1cccc(Cl)c1)C(O)c1ccccc1 (centres undefined) | 67400 | > 100000 | > 100000 | > 100000 | > 100000 | > 100000 | 27400 | > 100000 | > 100000 | > 100000 | 77800 | > 100000 | 67900 | > 100000 | 22400 | > 100000 | > 100000 | > 100000 | > 100000 | > 100000
COc1ccc2c(c1)C(=O)/C(=C/c1cccc(OCC(=O)Nc3nc(C)c(C)s3)c1)O2 | 139 | 779 | 2370 | 7630 | 2940 | – | 240 | – | 1630 | 3480 | 155 | 369 | 51.7 | 107 | 12700 | 26300 | 886 | 2810 | 12800 | 25600
CC(=O)c1ccc2c(c1)N(CCCN1CCN(CCO)CC1)c1ccccc1S2 | 2980 | 11400 | 3380 | 11900 | 1660 | 4520 | 2520 | > 23000 | 1780 | 3520 | 2990 | 8860 | 1670 | 3640 | 2150 | 4260 | 1720 | 3140 | 2840 | 10100
CCSc1ccc([C@@H]2[C@@H](O)C(=O)N2c2cc(OC)c(OC)c(OC)c2)cc1 | 14.1 | 43700 | 26.4 | 503 | < 10 | > 69200 | < 10 | > 69900 | < 10 | 15700 | 38.4 | 17700 | < 10 | < 11.9 | < 10 | 17500 | < 11.8 | 433 | 27.1 | 38100
CCOC(=O)c1ccc(NC(=O)NC2=NCCS2)cc1 | 45900 | > 100000 | 840 | > 40100 | 1970 | > 100000 | 10500 | > 100000 | 517 | > 100000 | 1170 | > 100000 | 352 | – | 619 | 6130 | 2700 | > 100000 | 1030 | 7760
COc1cc(C2=NN(C(C)=O)C(c3cc(OC)c(OC)c(OC)c3)C2)ccc1O (centres undefined) | 614 | > 100000 | 1090 | > 100000 | 275 | – | 261 | > 100000 | 276 | > 100000 | 381 | > 100000 | 273 | > 35400 | 216 | > 100000 | 132 | 2190 | 307 | > 100000
C=C1C(=O)O[C@H]2[C@H]1CC/C(Cn1cc(-c3ccc(N)cc3)nn1)=C\CC[C@@]1(C)O[C@@H]21 | 2650 | 12000 | 3050 | 11700 | 4460 | 27400 | 2990 | > 100000 | 2410 | 9130 | 2870 | 28600 | 1370 | 3070 | 12100 | 26500 | 3470 | 12700 | 18300 | 34400
Clc1ccc(/C=C/c2ccc3ccccc3n2)cc1 | 4820 | > 100000 | 3160 | > 71800 | 617 | 10500 | 439 | > 100000 | 467 | > 100000 | 3010 | > 100000 | 255 | 763 | 1200 | 6800 | 551 | > 100000 | 519 | > 21000
COc1cccc(CNc2ncnc3c2ncn3C2OC(CO)C(O)C2O)c1O (centres undefined) | 128 | – | 20.5 | 97.8 | 108 | 577 | 311 | > 100000 | 369 | > 100000 | 353 | > 44000 | 84.8 | – | 165 | 660 | 1430 | > 100000 | 179 | 932
c1ccc(-c2nc3n(c2-c2ccc4c(c2)OCO4)CCC3)nc1 | 993 | > 25000 | 10000 | > 25000 | 8240 | > 25000 | 5490 | > 25000 | 7890 | > 21300 | 6630 | > 21400 | 8140 | > 25000 | 4800 | 24500 | 2050 | 8860 | 4540 | 14700
